# Experimental data: ChEMBL document CHEMBL5614423, “Proximal fleximer analogues of 2'-deoxy-2'-fluoro-2'-methyl purine nucleos(t)ides: Synthesis and preliminary pharmacokinetic and antiviral evaluation” (Bioorg Med Chem, 2024)
# The source made the active and inactive calls. The rule behind the calls is not given here.
# Legend:
# Zaire ebolavirus [1] = experiment: Antiviral activity against Zaire Ebola virus upto 100 uM; type: functional, organism-based
# [2] = Toxicity in CD-1 mouse assessed as occurence of adverse event at 100 to 300 mg/kg, ip for 3 days; type: organism-based; details: in vivo, 72 h, dose 100-300 mg/kg, time 3 day
# dengue virus type 2 = experiment: Antiviral activity against Dengue virus 2 upto 100 uM; type: functional, organism-based
# Nipah virus = experiment: Antiviral activity against Nipah virus upto 100 uM; type: functional, organism-based; details: Henipavirus nipahense
# [3] = Toxicity in CD-1 mouse assessed as drug tolerance at 100 to 300 mg/kg, ip for 3 days; type: organism-based; details: in vivo, 72 h, dose 100-300 mg/kg, time 3 day
# Human alphaherpesvirus 1 = experiment: Antiviral activity against HSV 1 upto 150 uM; type: functional, organism-based
# Cytomegalovirus = experiment: Antiviral activity against Cytomegalovirus upto 150 uM; type: functional, organism-based
# Human gammaherpesvirus 4 = experiment: Antiviral activity against Epstein Barr virus upto 150 uM; type: functional, organism-based
# [4] = Half life in CD-1 mouse at 100 mg/kg by MS analysis; type: ADME, organism-based; details: in vivo
# [5] = tested on: Middle East respiratory syndrome-related coronavirus; experiment: Antiviral activity against MERS CoV upto 100 uM; type: functional, organism-based
# [6] = AUC in CD-1 mouse at 100 mg/kg measured for 24 hrs by MS analysis; type: ADME, organism-based; details: in vivo
# Chikungunya virus = experiment: Antiviral activity against Chikungunya virus upto 100 uM; type: functional, organism-based
# Zaire ebolavirus [7] = experiment: Antiviral activity against Zaire Ebola virus; type: functional, organism-based
Compound,Activity (Zaire ebolavirus [1]),Activity [2],Activity (dengue virus type 2),Activity (Nipah virus),Activity [3],Activity (Human alphaherpesvirus 1),Activity (Cytomegalovirus),Activity (Human gammaherpesvirus 4),half-life [4] [h],Activity [5],AUC [6] [ng·h/mL],Activity (Chikungunya virus),EC50 (Zaire ebolavirus [7]) [µM]
CNc1nc(N)ncc1-c1cn([C@@H]2O[C@H](CO)[C@@H](O)[C@@]2(C)F)cn1,inactive,Non-Toxic,inactive,inactive,Non-Toxic,inactive,inactive,inactive,1,inactive,36000,inactive,–
CNc1nc(N)ncc1-c1cn([C@@H]2O[C@H](CO[P@@](=O)(N[C@@H](C)C(=O)OC(C)C)Oc3ccccc3)[C@@H](O)[C@@]2(C)F)cn1,–,–,inactive,inactive,–,inactive,inactive,inactive,–,inactive,–,inactive,30
